Like-named read-outs stand apart in the source and are kept apart here.
Tests used:
[1] = system: Akt phosphorylation (Ser473-p-Akt) in PC-3 cells; assay: Inhibition of p-Akt phosphorylation level in PC-3 cells (cell level fluorescence imaging); type: cell-based; details: Homo sapiens; Akt phosphorylation in PC-3 cells, 2 hours incubation; read-out: PC-3 cell (IC50/nM)
Protocol: This experiment was performed by cell level fluorescence image processing method.
Triton X-100: 10% aqueous Triton X-100 solution (Sigma T8787-100 mL) was prepared, stored at 4° C. and diluted by 1:100 to give 0.1% Triton X-100 aqueous solution for use in the experiment.
Prodium Iodide (PI): 1 mg/mL (1.5 mM) PI (Sigma P4170) storage solution was prepared with PBS and stored at −25° C. in the dark. For use, the PI storage solution was diluted with PBS by 1:1000 to give a 1.5 μM solution and used in dark.
PC-3 cells in logarithmic growth phase were digested with 0.25% EDTA trypsin. 3000 cells/90 μL were seeded in a 96-well plate (BD 356692) and cultured at 37° C. and 5% CO2. After the cells adhered, 10 μL of the compound to be tested which was gradiently diluted 3 times (0.0046 to 10 μM, 8 concentration points, in duplicate) was added and incubated for 2 hours, followed by addition of 100 μL of 4% paraformaldehyde (DINGGUO AR-0211) and incubated at room temperature for 45 minutes. Then 100 μL of 0.1% Triton X-100 solution was added and incubated for another 30 minutes.
Triton X-100 solution was removed and the cells were rinsed with 200 μl of PBS twice (300 rpm vibration for 1 minute). The blocking solution (1% BSA solution in PBS) (Genview FA016-100G) was added and incubated at room temperature for 2 hours. The plate was rinsed with PBS once (300 rpm, 1 min) and 30 μL of Ser473-p-Akt antibody (cell signaling 4060L) diluted with 0.1% BSA was added and incubated overnight at 4° C. Ser473-p-Akt antibody was removed and the plate was rinsed with PBS twice (300 rpm, 1 minute). 35 μL of Alexa Flour 488 donkey anti-rabbit IgG (Invitrogen A21206) was added and incubated at room temperature for 1.5 hours. The plate was rinsed with PBS twice (300 rpm, 1 minute) and 35 μL of 1.5 μM PI was added and incubated at room temperature for 0.5 h. The fluorescence intensity was measured with Acumen eX3 (TTP LabTech).
10 μM BEZ235 (Selleck S1009) treatment group was negative control and DMSO treatment group was positive control. Inhibition ratio %=[1−(the mean value of the fluorescence intensity of the compound to be tested−the mean value of the fluorescence intensity of the negative control group)/(the mean value of the fluorescence intensity of the positive control group−the mean value of the fluorescence intensity of the negative control group)]×100%

T47D cells = assay: Cell inhibitory activity detected by MTT assay, T47D; type: cell-based; details: Homo sapiens, T47D, 72 h, read-out: T47D cell (IC50/nM), cell growth inhibition
Protocol: (§1) The MTT assay procedure and steps were carried out as well known to those skilled in the art, and all the reagents used in the methods were commercially available. The cells in logarithmic growth phase were digested with 0.25% EDTA trypsin (Gibco, 25200-056) and resuspended in fresh medium. 90 μL of the cell suspension was inoculated into a 96-well cell culture plate (BD Faclon 353072) with a suitable cell density and cultured at 37° C. under 5% CO2. After the cells adhered, 10 μL of the test compound at different concentrations (0.0046-10 μM, 8 concentration points) was added and incubated for another 72 h. 10 μL of MTT (5 mg/mL PBS solution) (Sigma, M5655) was added to react for 4 h. The absorbance at 492 nm was measured by using Thermo Scientific Multiskan MK3 microplate reader and IC50 was calculated using XLFIT 5.0 software (UK IDBS). T47D cell culture medium: RPMI-1640 medium (Hyclone SH30809.01B)+10% FBS (Gibco 10099-141)

MCF-7 cells = assay: Cell inhibitory activity detected by MTT assay, MCF-7; type: cell-based; details: Homo sapiens, MCF7, 72 h, read-out: MCF-7 cell (IC50/nM), cell growth inhibition
Protocol: as §1, with “MCF-7” for “T47D”, “DMEM” for “RPMI-1640”, “SH30243.01B+10%” for “SH30809.01B)+10%”

[2] = target: T1, PI3K-α kinase (p110α/p85α) (Homo sapiens, UniProt P42336); assay: Determination of PI3K kinase activity (ADP Transcreener, fluorescence polarization); type: biochemical; details: ATP 10 μM
T1 construct: purchased Invitrogen PV4788
T1 sequence (P42336 whole entry): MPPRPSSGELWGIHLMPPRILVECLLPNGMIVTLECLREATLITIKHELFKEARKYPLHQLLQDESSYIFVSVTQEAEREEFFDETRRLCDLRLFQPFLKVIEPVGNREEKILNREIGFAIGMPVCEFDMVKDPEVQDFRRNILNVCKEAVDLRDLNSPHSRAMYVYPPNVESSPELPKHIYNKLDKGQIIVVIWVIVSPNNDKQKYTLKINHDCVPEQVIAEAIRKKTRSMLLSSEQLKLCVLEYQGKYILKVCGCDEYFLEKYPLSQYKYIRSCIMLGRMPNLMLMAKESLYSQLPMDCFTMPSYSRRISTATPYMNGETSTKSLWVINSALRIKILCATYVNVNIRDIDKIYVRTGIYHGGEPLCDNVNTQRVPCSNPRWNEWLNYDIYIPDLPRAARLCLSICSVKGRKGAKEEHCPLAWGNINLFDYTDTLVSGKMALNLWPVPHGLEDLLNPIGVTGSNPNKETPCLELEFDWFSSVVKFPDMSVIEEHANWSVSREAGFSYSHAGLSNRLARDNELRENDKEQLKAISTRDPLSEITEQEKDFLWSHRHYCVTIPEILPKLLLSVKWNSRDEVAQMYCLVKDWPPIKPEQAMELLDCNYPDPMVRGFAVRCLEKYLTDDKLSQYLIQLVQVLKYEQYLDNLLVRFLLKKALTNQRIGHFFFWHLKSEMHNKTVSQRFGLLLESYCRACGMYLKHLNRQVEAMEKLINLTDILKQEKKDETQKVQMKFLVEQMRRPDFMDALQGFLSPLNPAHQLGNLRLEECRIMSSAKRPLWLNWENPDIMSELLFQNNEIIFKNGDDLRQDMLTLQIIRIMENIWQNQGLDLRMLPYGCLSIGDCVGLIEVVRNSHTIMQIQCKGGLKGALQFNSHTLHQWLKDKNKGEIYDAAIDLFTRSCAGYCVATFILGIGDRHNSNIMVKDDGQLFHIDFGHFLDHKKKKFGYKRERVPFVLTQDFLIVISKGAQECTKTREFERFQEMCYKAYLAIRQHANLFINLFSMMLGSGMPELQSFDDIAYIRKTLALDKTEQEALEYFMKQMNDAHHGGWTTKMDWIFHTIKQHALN
T1 sequence (P27986 whole entry partner): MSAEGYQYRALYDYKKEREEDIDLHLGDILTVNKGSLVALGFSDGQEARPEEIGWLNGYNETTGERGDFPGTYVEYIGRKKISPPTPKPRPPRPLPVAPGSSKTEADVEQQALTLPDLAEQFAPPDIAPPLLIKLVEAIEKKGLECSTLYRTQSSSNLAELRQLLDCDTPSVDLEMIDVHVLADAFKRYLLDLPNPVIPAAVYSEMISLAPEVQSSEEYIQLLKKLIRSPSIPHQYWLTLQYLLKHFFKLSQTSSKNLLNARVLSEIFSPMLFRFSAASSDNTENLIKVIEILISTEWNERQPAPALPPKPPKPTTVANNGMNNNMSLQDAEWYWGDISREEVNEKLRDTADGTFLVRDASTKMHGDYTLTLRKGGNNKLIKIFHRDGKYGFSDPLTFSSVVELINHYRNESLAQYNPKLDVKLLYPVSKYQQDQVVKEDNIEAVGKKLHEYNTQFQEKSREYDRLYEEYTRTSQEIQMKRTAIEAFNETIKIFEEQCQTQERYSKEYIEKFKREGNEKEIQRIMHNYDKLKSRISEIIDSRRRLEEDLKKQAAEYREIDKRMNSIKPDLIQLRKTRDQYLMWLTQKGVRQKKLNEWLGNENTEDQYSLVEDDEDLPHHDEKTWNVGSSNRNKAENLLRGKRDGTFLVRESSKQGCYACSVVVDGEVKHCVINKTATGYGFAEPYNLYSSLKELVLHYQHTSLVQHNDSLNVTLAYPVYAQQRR
Protocol: (§2) The inhibition of PI3K kinase activity by the compound to be tested was determined by the following method. The working concentration of each component in the 25 μL enzyme reaction system was: p110α/p85α 3 ng (or p110β/p85α 60 ng, or p110δ/p85α 90 ng, or p110γ 100 ng), ATP 10 μM, PIP2: PS (Invitrogen PV5100) 30 μM and the DMSO concentration was 2% after addition of the compound to be tested.
(§3) At the time of the test, the compound to be tested was dissolved in dimethylsulfoxide (DMSO) according to the desired concentration of the experiment. The compound to be tested was gradiently diluted 3 times (0.00046-1 μM, 8 concentration points) with 10% DMSO. 5 μL of the compound to be tested was added to each well of a 96-well plate (Greiner 675076) in duplicate. […] 10 μL of ATP/PIP2: PS and 10 μL of the PI3K enzyme working solution were added to each well in a 96-well plate. The plate was shaken and mixed uniformly, and then incubated at 25° C. for 1 hour. At the same time, ADP and ATP (0.01 μM, 0.02 μM, 0.04 μM, 0.06 μM, 0.08 μM[…], 0.1 μM, 0.25 μM, 0.5 μM, 1 μM, 2 μM, 5 μM, 10 μM, 12 concentration points) were diluted with buffer to set the standard curve. After completion of the enzyme reaction, 25 μL of ADP assay solution (1% 100×ADP tracer, 0.79% ADP antibody and 10% 10× reaction stop solution) was added and incubated at 25° C. for 1 hour. Fluorescence polarization value [mP] of each well was measured with a Perkin Elmer Victor X5 Fluorescent Microplate. The ADP concentration [ADP] was calculated from the ADP/ATP standard curve and the IC50 values were calculated using the XLFit software.

NIH3T3 cells = assay: Cytotoxicity by MTT assay, NIH3T3; type: cell-based; details: Mus musculus, NIH3T3, 72 h, cytotoxicity class, read-out: NIH3T3 cell (IC50/nM)
Protocol: The MTT assay procedure and steps were carried out as well known to those skilled in the art, and all the reagents used in the methods were commercially available.
as §1, with “The” for “The MTT assay procedure and steps were carried out as well known to those skilled in the art, and all the reagents used in the methods were commercially available. The”, “IDBS).” for “IDBS). T47D cell culture medium: RPMI-1640 medium (Hyclone SH30809.01B)+10% FBS (Gibco 10099-141)”

[3] = target: T2, PI3K-β kinase (p110β/p85α) (Homo sapiens, UniProt P42338); assay: Determination of PI3K kinase activity (ADP Transcreener, fluorescence polarization); type: biochemical; details: Table 1; ATP 10 μM; read-out: PI3K-β/nM (IC50 of inhibitory activity against PI3K kinase)
T2 construct: purchased Millipore 14-603
T2 sequence (P42338 whole entry): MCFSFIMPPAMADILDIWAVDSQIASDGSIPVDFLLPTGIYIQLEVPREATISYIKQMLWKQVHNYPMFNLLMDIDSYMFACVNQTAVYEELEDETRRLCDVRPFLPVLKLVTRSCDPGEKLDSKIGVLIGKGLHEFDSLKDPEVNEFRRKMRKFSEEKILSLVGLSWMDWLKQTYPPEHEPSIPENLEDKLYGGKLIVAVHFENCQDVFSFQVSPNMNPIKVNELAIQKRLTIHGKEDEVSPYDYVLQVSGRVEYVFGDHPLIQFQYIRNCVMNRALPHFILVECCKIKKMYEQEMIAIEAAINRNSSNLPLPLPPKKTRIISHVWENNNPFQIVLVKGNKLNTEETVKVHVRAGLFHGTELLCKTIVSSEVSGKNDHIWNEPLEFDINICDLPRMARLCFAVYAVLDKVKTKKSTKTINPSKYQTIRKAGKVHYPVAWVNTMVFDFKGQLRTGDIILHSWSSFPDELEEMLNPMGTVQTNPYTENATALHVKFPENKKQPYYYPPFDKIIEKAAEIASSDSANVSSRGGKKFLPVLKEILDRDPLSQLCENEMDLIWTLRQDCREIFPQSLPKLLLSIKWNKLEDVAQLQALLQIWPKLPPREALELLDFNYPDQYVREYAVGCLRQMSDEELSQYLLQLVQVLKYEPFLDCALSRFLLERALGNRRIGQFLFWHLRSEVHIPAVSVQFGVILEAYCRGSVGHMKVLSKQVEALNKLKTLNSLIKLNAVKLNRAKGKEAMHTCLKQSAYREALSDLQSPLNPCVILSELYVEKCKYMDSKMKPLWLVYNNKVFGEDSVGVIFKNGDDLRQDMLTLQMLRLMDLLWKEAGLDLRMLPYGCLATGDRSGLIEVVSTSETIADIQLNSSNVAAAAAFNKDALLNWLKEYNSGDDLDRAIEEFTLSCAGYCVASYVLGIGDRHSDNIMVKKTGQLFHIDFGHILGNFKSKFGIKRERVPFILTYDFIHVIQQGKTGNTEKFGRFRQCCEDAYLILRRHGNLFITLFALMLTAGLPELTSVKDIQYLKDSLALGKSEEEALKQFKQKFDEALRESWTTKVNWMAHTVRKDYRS
T2 sequence (P27986 whole entry partner): as the sequence (P27986 whole entry partner) above
Protocol: as §2, §3

[4] = target: T3, PI3K-δ kinase (p110δ/p85α) (Homo sapiens, UniProt O00329); assay: as above; type: biochemical; details: Table 1; ATP 10 μM; read-out: PI3K-δ/nM (IC50 of inhibitory activity against PI3K kinase)
T3 construct: purchased Millipore 14-604M
T3 sequence (O00329 whole entry): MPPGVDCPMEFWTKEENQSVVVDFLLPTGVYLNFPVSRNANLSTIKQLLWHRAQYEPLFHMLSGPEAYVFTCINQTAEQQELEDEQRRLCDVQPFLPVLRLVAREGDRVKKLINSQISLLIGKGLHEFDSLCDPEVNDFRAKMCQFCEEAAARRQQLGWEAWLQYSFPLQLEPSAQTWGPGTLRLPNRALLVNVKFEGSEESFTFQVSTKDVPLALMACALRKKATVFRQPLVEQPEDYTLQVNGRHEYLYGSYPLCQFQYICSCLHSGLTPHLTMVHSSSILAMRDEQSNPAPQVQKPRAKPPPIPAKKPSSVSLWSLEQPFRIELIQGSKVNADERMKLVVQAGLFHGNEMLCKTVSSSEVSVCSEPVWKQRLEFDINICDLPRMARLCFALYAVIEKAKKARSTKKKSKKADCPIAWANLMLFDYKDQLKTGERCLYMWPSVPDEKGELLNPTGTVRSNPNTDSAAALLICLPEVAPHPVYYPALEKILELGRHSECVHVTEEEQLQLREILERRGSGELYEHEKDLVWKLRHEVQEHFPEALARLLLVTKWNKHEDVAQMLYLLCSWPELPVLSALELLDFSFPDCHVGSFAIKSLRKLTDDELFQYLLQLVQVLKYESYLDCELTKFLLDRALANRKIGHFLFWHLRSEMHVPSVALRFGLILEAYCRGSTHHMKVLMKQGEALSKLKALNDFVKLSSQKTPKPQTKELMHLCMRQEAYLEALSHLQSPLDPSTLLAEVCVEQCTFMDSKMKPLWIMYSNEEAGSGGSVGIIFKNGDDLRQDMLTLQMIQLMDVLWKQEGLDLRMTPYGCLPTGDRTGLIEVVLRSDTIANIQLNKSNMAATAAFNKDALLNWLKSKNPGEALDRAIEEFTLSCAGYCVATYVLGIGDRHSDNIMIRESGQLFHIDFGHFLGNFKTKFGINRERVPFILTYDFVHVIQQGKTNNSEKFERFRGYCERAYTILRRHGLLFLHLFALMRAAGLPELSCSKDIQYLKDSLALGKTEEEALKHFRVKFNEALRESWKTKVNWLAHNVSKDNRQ
T3 sequence (P27986 whole entry partner): as the sequence (P27986 whole entry partner) above
Protocol: as §2, §3

PI3K-γ kinase (p110γ) = target: T4, PI3K-γ kinase (p110γ) (Homo sapiens, UniProt P48736); assay: as above; type: biochemical; details: Table 1; ATP 10 μM; read-out: PI3K-γ/nM (IC50 of inhibitory activity against PI3K kinase)
T4 construct: purchased Invitrogen PV4786
T4 sequence (P48736 whole entry): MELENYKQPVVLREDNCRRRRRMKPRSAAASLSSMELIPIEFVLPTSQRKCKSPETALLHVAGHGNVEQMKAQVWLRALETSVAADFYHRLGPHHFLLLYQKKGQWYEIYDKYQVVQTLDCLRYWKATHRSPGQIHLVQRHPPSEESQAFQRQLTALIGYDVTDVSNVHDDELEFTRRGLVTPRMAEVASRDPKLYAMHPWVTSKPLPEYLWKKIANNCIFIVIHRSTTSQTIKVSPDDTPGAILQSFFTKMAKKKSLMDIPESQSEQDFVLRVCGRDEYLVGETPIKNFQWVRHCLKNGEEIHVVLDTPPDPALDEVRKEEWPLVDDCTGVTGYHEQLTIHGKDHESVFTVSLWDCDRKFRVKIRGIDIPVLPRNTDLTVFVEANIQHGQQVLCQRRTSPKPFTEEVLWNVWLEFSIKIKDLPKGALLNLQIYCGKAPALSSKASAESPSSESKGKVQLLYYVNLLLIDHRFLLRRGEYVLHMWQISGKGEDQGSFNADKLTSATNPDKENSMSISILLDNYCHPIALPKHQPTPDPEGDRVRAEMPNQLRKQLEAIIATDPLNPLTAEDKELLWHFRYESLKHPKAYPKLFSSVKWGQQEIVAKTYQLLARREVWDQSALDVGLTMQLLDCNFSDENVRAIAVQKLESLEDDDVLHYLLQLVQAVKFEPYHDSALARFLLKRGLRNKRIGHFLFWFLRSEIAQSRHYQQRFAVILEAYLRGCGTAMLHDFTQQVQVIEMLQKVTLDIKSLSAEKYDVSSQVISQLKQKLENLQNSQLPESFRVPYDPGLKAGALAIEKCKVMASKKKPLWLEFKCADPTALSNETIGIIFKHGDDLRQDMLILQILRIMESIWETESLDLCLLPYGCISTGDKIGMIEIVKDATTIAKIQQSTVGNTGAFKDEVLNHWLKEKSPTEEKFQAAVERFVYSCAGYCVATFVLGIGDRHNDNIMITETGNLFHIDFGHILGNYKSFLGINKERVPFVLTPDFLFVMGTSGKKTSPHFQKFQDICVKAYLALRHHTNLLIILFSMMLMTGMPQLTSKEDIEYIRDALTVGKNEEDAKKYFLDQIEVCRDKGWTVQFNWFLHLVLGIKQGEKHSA
Protocol: The PI3K kinase used in the experiment: p110α/p85α (Invitrogen PV4788), p110β/p85α (Millipore 14-603), p110δ/p85α (Millipore 14-604M), and p110γ (Invitrogen PV4786).
as §2
as §3, with “duplicate. 2.5× buffer was prepared and 1 μL of DTT (Millipore 20-265) was added to each 800 μL of 2.5× buffer.” for “duplicate.”

[5] = Table 2, read-out: PI3K-α/nM (IC50 of inhibitory activity against PI3K-α kinase)
[6] = Table 1, read-out: PI3K-α/nM (IC50 of inhibitory activity against PI3K kinase)

Row | SMILES | IC50 [1] | IC50 (MCF-7 cells) | IC50 (NIH3T3 cells) | further results
1 | CCOC(=O)C1(c2cc(-c3cnc(N)cc3C(F)(F)F)nc(N3CCOCC3)n2)CC1 [Compound S-2] | – | – | 5000 to 10000 nM | IC50 [2, 5]: 550 nM
2 | C[C@@H]1COCCN1c1nc(-c2cnc(N)cc2C(F)(F)F)cc(C2(S(C)(=O)=O)CC2)n1 [Compound S-5] | – | – | 1000 to 3000 nM | –
3 | Nc1cc(C(F)(F)F)c(-c2cc(C3(C(=O)N4CCCCC4)CC3)nc(N3CCOCC3)n2)cn1 [Compound S-7] | – | – | > 10000 nM | –
4 | Nc1cc(C(F)(F)F)c(-c2cc(C3(CN4CCOCC4)CC3)nc(N3CCOCC3)n2)cn1 [Compound S-8, 5-(2-morpholino-6-(1-(morpholinomethyl)cyclopropyl)pyrimidin-4-yl)-4-(trifluoromethyl)pyridin-2-amine] | – | – | > 10000 nM | –
5 | C[C@H]1COCCN1c1nc(-c2cnc(N)cc2C(F)(F)F)cc(C2(S(=O)(=O)c3ccccc3)CCC2)n1 [Compound S-15] | – | – | 5000 to 10000 nM | –
6 | CNc1cc(C(F)(F)F)c(-c2cc(C3(S(C)(=O)=O)CC3)nc(N3CCOCC3)n2)cn1 [Compound S-36] | – | – | 3000 to 5000 nM | –
7 | CC(C)(c1cc(-c2cnc(N)cc2C(F)(F)F)nc(N2CCOCC2)n1)n1ncc2ccccc21 [Compound S-56, 5-(6-(2-(1H-indazol-1-yl)propan-2-yl)-2-morpholinopyrimidin-4-yl)-4-(trifluoromethyl)pyridin-2-amine] | – | – | > 10000 nM | –

Second part, led by results:

Row | IC50 [1] | IC50 (MCF-7 cells) | SMILES | IC50 (NIH3T3 cells) | further results
8 | 596 nM | – | Nc1cc(C(F)(F)F)c(-c2cc(N3CCOCC3)nc(N3CCOCC3)n2)cn1 [BKM-120, reference compound] | – | –
9 | 2260 nM | 996 nM | CS(=O)(=O)C1(c2cc(-c3cnc(N)cc3C(F)(F)F)nc(N3CCOCC3)c2)CC1 [Comparative compound 1, 4-(1-(methylsulfonyl)cyclopropyl)-6-morpholino-4′-(trifluoromethyl)-2,3′bipyridyl-6′-amine, reference compound] | – | IC50 (T47D cells): 1220 nM
10 | 513 nM | 441 nM | CC(C)(c1cc(-c2ccc(N)nc2)nc(N2CCOCC2)n1)S(C)(=O)=O [Compound S-39] | – | –
11 | 465 nM | 355 nM | CS(=O)(=O)C1(c2cc(-c3ccc(N)nc3)nc(N3CCOCC3)n2)CC1 [Compound S-40] | – | IC50 [2, 5]: 92 nM
12 | 577 nM | 240 nM | CC(C)(O)c1cc(-c2cnc(N)cc2Cl)nc(N2CCOCC2)n1 [Compound S-63] | – | IC50 [2, 6]: 21 nM; IC50 [3]: 228 nM; IC50 [4]: 158 nM; IC50 (PI3K-γ kinase (p110γ)): 428 nM
13 | 330 nM | – | CC(C)(O)c1cc(-c2cnc(N)nc2C(F)(F)F)nc(N2CCOCC2)n1 [Compound S-64] | – | IC50 [2, 6]: 13 nM; IC50 [3]: 27 nM; IC50 [4]: 19 nM; IC50 (PI3K-γ kinase (p110γ)): 431 nM

Reference: US10227324B2 (Shanghai Haiyan Pharmaceutical Technology Co., Ltd., priority 2014, dated 2019)
